Assay results reported in the supplement of paper PMC8671470.

Columns and labels:
Conditions in all cases: 72 h
BV-173 [1] = tested on: BV-173
How it was run: (§1)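 The IC50 was derived from log-logistic dose–response fitting. Each of fifteen myeloid leukaemia cell lines, seeded in RPMI 1640 within its linear growth range, was exposed in 384-well plates to five tenfold doses (1 to 10,000 nM) in duplicate for 72 h at 37 °C and 5% CO2. Luminescent ATP viability readings were normalised to vehicle and to a positive control at 10 µM before four-parameter curve fitting.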

HEL [2] = tested on: HEL
How it was run: as §1

HL-60 [3] = tested on: HL-60
How it was run: as §1

K-562 = tested on: K-562
How it was run: as §1

KCL-22 [4] = tested on: KCL-22
How it was run: as §1

KG-1 [5] = tested on: KG-1
How it was run: as §1

KU-812 [6] = tested on: KU-812
How it was run: as §1

LAMA-84 [7] = tested on: LAMA-84
How it was run: as §1

ML-2 [8] = tested on: ML-2
How it was run: as §1

MOLM-13 [9] = tested on: MOLM-13
How it was run: as §1

MV4-11 [10] = tested on: MV4-11
How it was run: as §1

Mono-Mac-6 [11] = tested on: Mono-Mac-6
How it was run: as §1

NOMO-1 [12] = tested on: NOMO-1
How it was run: as §1

SHI-1 [13] = tested on: SHI-1
How it was run: as §1

THP-1 [14] = tested on: THP-1
How it was run: as §1

BV-173 [15] = assay: cell viability (% survival relative to DMSO control, bortezomib = 0%); higher = less cytotoxic
How it was run: (§2)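 In 384-well plates pre-printed with compounds at 1, 10, 100, 1000 or 10000 nM, duplicate wells received cells from 10 AML and 5 CML lines at densities within the linear growth range. The plates stayed at 37 °C with 5% CO2 for 72 h before CellTiter-Glo luminescence was recorded. Each entry is averaged percent survival. Scaling placed vehicle at 100% and a 10 µM positive control at 0%.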

HEL [16] = assay: as above
How it was run: as §2

HL-60 [17] = assay: as above
How it was run: as §2

KCL-22 [18] = assay: as above
How it was run: as §2

KG-1 [19] = assay: as above
How it was run: as §2

KU-812 [20] = assay: as above
How it was run: as §2

LAMA-84 [21] = assay: as above
How it was run: as §2

ML-2 [22] = assay: as above
How it was run: as §2

MOLM-13 [23] = assay: as above
How it was run: as §2

MV4-11 [24] = assay: as above
How it was run: as §2

Mono-Mac-6 [25] = assay: as above
How it was run: as §2

NOMO-1 [26] = assay: as above
How it was run: as §2

SHI-1 [27] = assay: as above
How it was run: as §2

THP-1 [28] = assay: as above
How it was run: as §2

O=C1O[C@H]([C@@H](O)CO)C(O)=C1O [Vitamin C (ascorbate)]
Conditions | IC50 (cell viability) [µM]
BV-173 [1] | > 10
HEL [2] | > 10
HL-60 [3] | > 10
K-562 | > 10
KCL-22 [4] | > 10
KG-1 [5] | > 10
KU-812 [6] | > 10
LAMA-84 [7] | > 10
ML-2 [8] | > 10
MOLM-13 [9] | > 10
MV4-11 [10] | > 10
Mono-Mac-6 [11] | > 10
NOMO-1 [12] | > 10
SHI-1 [13] | > 10
THP-1 [14] | > 10

cell viability [%]
Conditions | 1 nM | 10 nM | 100 nM | 1000 nM | 10000 nM
BV-173 [15] | 94.2 | 113 | 103 | 99.2 | 118
HEL [16] | 103 | 106 | 98.9 | 107 | 113
HL-60 [17] | 104 | 91.2 | 101 | 108 | 84.7
KCL-22 [18] | 90.2 | 96.2 | 97.7 | 88.1 | 92.6
KG-1 [19] | 112 | 103 | 118 | 97.5 | 106
KU-812 [20] | 96.8 | 104 | 99.5 | 95 | 108
LAMA-84 [21] | 106 | 106 | 113 | 101 | 102
ML-2 [22] | 103 | 107 | 100 | 102 | 121
MOLM-13 [23] | 101 | 103 | 91.6 | 94.2 | 107
MV4-11 [24] | 102 | 102 | 111 | 111 | 92.1
Mono-Mac-6 [25] | 103 | 109 | 98.8 | 101 | 108
NOMO-1 [26] | 95.5 | 100 | 110 | 97.8 | 102
SHI-1 [27] | 110 | 106 | 105 | 102 | 114
THP-1 [28] | 96.4 | 100 | 103 | 103 | 99.9

NC(=O)c1cccc(-c2cccc(OC(=O)NC3CCCCC3)c2)c1 [URB-597]
Conditions | IC50 (cell viability) [µM]
BV-173 [1] | > 10
HEL [2] | > 10
HL-60 [3] | > 10
K-562 | > 10
KCL-22 [4] | > 10
KG-1 [5] | > 10
KU-812 [6] | > 10
LAMA-84 [7] | > 10
ML-2 [8] | > 10
MOLM-13 [9] | > 10
MV4-11 [10] | > 10
Mono-Mac-6 [11] | > 10
NOMO-1 [12] | > 10
SHI-1 [13] | > 10
THP-1 [14] | > 10

cell viability [%]
Conditions | 1 nM | 10 nM | 100 nM | 1000 nM | 10000 nM
BV-173 [15] | 91 | 104 | 105 | 104 | 115
HEL [16] | 102 | 104 | 103 | 110 | 95.2
HL-60 [17] | 98.7 | 89.2 | 114 | 94.3 | 103
KCL-22 [18] | 105 | 106 | 104 | 98.2 | 109
KG-1 [19] | 102 | 103 | 102 | 92.8 | 101
KU-812 [20] | 92.1 | 99.1 | 103 | 103 | 87.2
LAMA-84 [21] | 99.8 | 96.9 | 99.6 | 98.3 | 96.1
ML-2 [22] | 92.2 | 94.2 | 105 | 105 | 114
MOLM-13 [23] | 99.9 | 93.7 | 105 | 93.8 | 117
MV4-11 [24] | 96.4 | 96.5 | 109 | 99.6 | 89.5
Mono-Mac-6 [25] | 102 | 99.6 | 97.2 | 117 | 123
NOMO-1 [26] | 101 | 103 | 105 | 96.1 | 110
SHI-1 [27] | 93.9 | 86.1 | 89.4 | 100 | 110
THP-1 [28] | 98.5 | 93.8 | 105 | 99.1 | 102

O=C(C1CC1)N1CC[C@@H](C=C2NNC(=O)N2c2ccc(-c3ccc4occc4c3)cc2)C1
Conditions | IC50 (cell viability) [µM]
BV-173 [1] | > 10
HEL [2] | > 10
HL-60 [3] | 0.0437
K-562 | > 10
KCL-22 [4] | 9.06
KG-1 [5] | > 10
KU-812 [6] | > 10
LAMA-84 [7] | > 10
ML-2 [8] | > 10
MOLM-13 [9] | 1.47
MV4-11 [10] | > 10
Mono-Mac-6 [11] | > 10
NOMO-1 [12] | > 10
SHI-1 [13] | > 10
THP-1 [14] | > 10

cell viability [%]
Conditions | 1 nM | 10 nM | 100 nM | 1000 nM | 10000 nM
BV-173 [15] | 97.1 | 86.3 | 82.4 | 79 | 63.7
HEL [16] | 106 | 90.5 | 107 | 101 | 78.5
HL-60 [17] | 101 | 66.7 | 48.4 | 35 | 38.1
KCL-22 [18] | 99.1 | 101 | 94.9 | 86.2 | 58.3
KG-1 [19] | 95.4 | 104 | 112 | 90.3 | 82.4
KU-812 [20] | 99.8 | 94.8 | 99.9 | 102 | 67.1
LAMA-84 [21] | 98.5 | 97.5 | 88.7 | 82.8 | 72.4
ML-2 [22] | 101 | 98.4 | 107 | 97.8 | 88.4
MOLM-13 [23] | 101 | 77.4 | 75.1 | 53.2 | 44.7
MV4-11 [24] | 88.1 | 95.7 | 81 | 84 | 59.9
Mono-Mac-6 [25] | 94.7 | 91.2 | 90 | 88 | 64.9
NOMO-1 [26] | 98.1 | 98.6 | 107 | 99.4 | 89.9
SHI-1 [27] | 90.4 | 99.4 | 108 | 94.7 | 79.6
THP-1 [28] | 98.7 | 93.3 | 104 | 103 | 101
